≈ marks a conversion by molar mass, not a printed value. A value given as a limit tells only on which side of the number the result lay.

A short description of data set [1]: aqueous solubility (PBS, pH 7.4), shake flask. Format: physicochemical. The protocol: The aqueous solubility (PBS, pH 7.4) was determined at Eurofins, Cerep, Panlabs according to C. A. Lipinski et al. Adv. Drug Del. Rev. 1997:46, 3. Measurement of the aqueous solubility was performed according to Lipinski, C. A. et al. Adv. Drug Del. Rev. 1997:46, 3. The relevant information from the literature is described below. […] In addition, chromatographic purity (%) was defined as the peak area of the principal peak relative to the total integrated peak area in the HPLC chromatogram of the calibration standard.

Data set [2] has as its system HSV-2. Put plainly: animal model, intranasal HSV-2 infection of mice, survival. The format is in vivo, BALB/cABom strain. Conditions: Human alphaherpesvirus 2, inhaled or nasal, 120 h; HSV-2, mice, treatment for 5 days; read-out: ED50 (50% of the infected animals survive). Here is the method:
(§1) Animal experiments were performed according to patent WO2001/047904 or subsequent publications (U. A. K. Betz et al. Antimicrob. Agents Chemother. 2002:46, 1766 or G. Kleymann et al. Nat. Med. 2002; 8, 392). The relevant experimental details of the above mentioned patent and publication to evaluate the antiviral activity of the invention (disclosed compounds) in-vivo (animal models) are described below.
(§2) 6 week-old female mice, BALB/cABom strain were obtained from a commercial breeder.
(§3) Infection: The animals were anaesthetized with Et2O in a sealed glass vessel. 50 μL of a dilution of the virus stock (infection dose 5×10^4 PFU (Plaque forming units)) were introduced into the nose of the anaesthetized animals using a pipette. In 90 to 100% of the animals, this infection dose causes death by generalized infection with prominent repiratory and central-nervous symptoms on average after 5 to 8 days.
(§4) 6 hours after infection animals were treated with doses of 0.1-150 mg/kg of body mass, 3 times per day at 7 am, […] (tid) or 2 times per day at 7 am and […] (bid) or once daily at […] (od) for a period of 5 days. […] After the last administration, the animals were monitored further and the time of death was determined.

In data set [3] the test system is HSV-2. The data set is described as follows: activity selectivity assay, HSV-2 infected Vero cells. As to conditions: Human alphaherpesvirus 2. Format: cell-based. The protocol:
(§5) HSV (HSV-1 Walki, HSV-1F, HSV-2 MS, HSV clinical isolates and HSV resistant strains) was cultivated on Vero cells (ATCC CCL-81) under the following conditions: The cells were grown in M199 medium (5% foetal calf serum, 2 mM glutamine, 100 IU/mL penicillin, 100 μg/mL streptomycin) in cell culture bottles at 37° C. and 5% CO2. The cells were splitted twice per week (1:4). For the infection, the medium was removed, the cells were washed with Hank's solution, detached using 0.05% trypsin, 0.02% EDTA and incubacted at a density of 4×10^5 cells/mL under the above-mentioned conditions for 24 h. The medium was removed and the virus solution was added at an m.o.i of <0.05 in a volume of 2 mL per 175 cm^2 surface. The infected cells were incubated at 37° C., 5% CO2 for 1 h and then the medium was made up to a volume of 50 mL per 175 cm^2 bottle. […] The virus was released by freezing (−80° C.) and thwawing (37° C.) the infected cultures twice. Cell debris was removed by centrifugation (300 g, 10 min, 4° C.) and the supernatant was frozen in aliquots at −80° C.
(§6) The virus titre was determined using a plaque assay. To this end, Vero cells were seeded in 24-well plates at a density of 4×10^5 cells per well and, after 24 h of incubation (37° C., 5% CO2) infected with 100 μL of inoculum (dilutions (10^−2 to 10^−12) of the virus stock). 1 h after the infection, the medium was removed and the cells were covered with 1 mL of overlay medium (0.5% methylcellulose, 0.22% sodium bicarbonate, 2 mM glutamine, 100 IU/mL penicillin, 100 μg/mL streptomycin, 5% foetal calf serum in MEM-Eagle medium with Earl's salt) and incubated for 3 d in a cell incubator at (37° C., 5% CO2). The cells were then fixated using 4% formaline for 1 h, washed with water, stained with Giemsa for 30 min and then washed and dried. Using a plaque viewer, the virus titre was determined.
(§7) The antiviral action was determined using a patented (DE10235967 and WO2004/015416) and subsequently published activity selectivity assay (G. Kleymann et al. J. Biomol. Screen. 2004; 9, 578) in 96- or 384-well mictrotitre plates using various cell lines of neuronal, lymphoid and epithelial origin, such as, for example, Vero (african green monkey kidney cells), MEF (murine embryonal fibroblasts), HELF (human embryonal fibroblasts), NT2 (human neuronal cell line) or Jurkat (human lymphoid T-cell line). The relevant experimental details of the above mentioned patent and publication to evaluate the antiviral activity of the invention (disclosed compounds) are described below.
(§8) The effect of the substances on the spreading of the cytopathogenic effect was determined in comparision to the reference compound acyclovir-sodium (Zovirax™), a clinically approved anti-herpes chemotherapeutic.
(§9) The compounds (50 mM stock solution dissolved in DMSO) are examined on microtitre plates (for example 96-well flat bottom cell culture plates) at a final concentration of 250 to 0.5 μM or, in case of potent antiviral compounds, 250 to 0.5 nM in 2 to 4 replications (4 to 2 substances per plate). Also examined are toxic and cytostatic effects or precipitation of the compounds. […]

Data set [4] has as its system HSV-1. Put plainly: activity selectivity assay, HSV-1 infected Vero cells. Format: cell-based. As to conditions: Human alphaherpesvirus 1. Here is the method:
as §5, §6, §7, §8, §9

The subject of a further data set is HSV-1 ACV resistant. The data set is described as follows: activity selectivity assay, HSV-1 ACV resistant. Format: cell-based. Conditions: Human alphaherpesvirus 1. The protocol: as §5, §6, §7, §8, §9
The target in a further data set is Human Carboanhydrase II (Homo sapiens, UniProt P00918). The data set is described as follows: carbonic anhydrase activity assay (pH indicator method). The format is biochemical. As to conditions: for carbonic anhydrase inhibition: result in words.
Data set [5] deals with HSV-1. The data set is described as follows: animal model, intranasal HSV-1 infection of mice, survival. Format: in vivo, BALB/cABom strain. Conditions: Human alphaherpesvirus 1, inhaled or nasal, 120 h; HSV-1, mice, treatment for 5 days; read-out: ED50 (50% of the infected animals survive). Here is the method:
as §1, §2, §3, §4

On to `Cc1nc(N(C)C(=O)Cc2ccc(-c3cc(F)ccc3F)cc2)sc1S(C)(=N)=O` (racemic) [Example 7, 2-(2′,5′-Difluoro-[1,1′-biphenyl]-4-yl)-N-methyl-N-(4-methyl-5-(S-methylsulfonimidoyl)thiazol-2-yl)acetamide], for which, in data set [1] (aqueous buffer, kinetic from dmso stock, pH 7.4, shake flask, 24 h incubation, rt, read-out: Solubility [μM] (PBS, pH 7.4, 200 μM Test concentration)), the solubility at 24 h was determined as 5 µM (≈ 2.18 µg/mL). For the same compound, in data set [1] (pH 7.4), the “increase of aqueous solubility in comparison to Example 87 (WO2001/047904)” value is recorded as “at least one order of mangitude”. In addition, the ED50 with HSV-2 [2] and in the data set on HSV-1 [5] was under 10 mg/kg throughout. Also, the IC50 in the data set with HSV-2 [3] is 25 to 100 nM; in the data set with HSV-1 [4] it was 25 to 100 nM; with HSV-1 ACV resistant it was 25 to 100 nM; against Human Carboanhydrase II, over 10 µM. Moreover, the carbonic anhydrase inhibition entry on Human Carboanhydrase II is listed as “no or significantly reduced carbonic anhydrase inhibition”.

With `Cc1nc(N(C)C(=O)Cc2ccc(-c3cc(F)ccc3F)cc2)sc1[S@@](C)(=N)=O` [Example 7(−), (−)-(S)-2-(2′,5′-Difluoro-[1,1′-biphenyl]-4-yl)-N-methyl-N-(4-methyl-5-(S-methylsulfonimidoyl)thiazol-2-yl)acetamide], the IC50 in the data set on HSV-2 [3] is 10 to 50 nM; in the data set with HSV-1 [4] it was 10 to 50 nM; in the data set on HSV-1 ACV resistant, 10 to 50 nM; at Human Carboanhydrase II, over 10 µM. Moreover, the carbonic anhydrase inhibition result at Human Carboanhydrase II was “no or significantly reduced carbonic anhydrase inhibition”. In addition, the ED50 in the data set on HSV-1 [5] is under 5 mg/kg.

For orientation: ED50 means the midpoint of the dose-response relation. Usually IC50 stands for the point on the concentration scale where inhibition reaches its midpoint.

Source of the values: patent US11278534B2, “Enantiomers of substituted thiazoles as antiviral compounds” (Innovative Molecules GmbH, priority 2017, dated 2022).
